Test results reported in patent US12533444B2, “Mitigation of peri-implantitis by design and stability of bifunctional peptides with antimicrobial properties” (priority 2019, dated 2026).

Tests used:
oral pathogens = settings: against oral pathogens; cited from earlier work
[1] = Peptide binding to titanium implant discs (percent surface coverage by fluorescence imaging); settings: FITC-labeled peptide, up to 6× theoretical footprint concentration, two minutes at 37° C., washed
Experimental: Titanium implant disc functionalization with bifunctional peptides was accomplished by incubating 100 μL of a specified fold concentration of the theoretical “footprint” concentration onto clean, sterile discs for different time periods at 37° C. for 2 minutes. Following incubation, the discs were transferred to a sterile well in a 24-well plate containing 500 μL of DI H2O and washed multiple times to remove unbound peptide. The discs were transferred to a clean glass microscope slide for imaging using a fluorescent microscope. All experiments were repeated a minimum of three times and images were recorded at 10× magnification.
A custom MatLab script was developed to determine the percent surface coverage of fluorescently labeled bifunctional peptides on the implant disc surface. The color fluorescent images were read into MatLab using the imread function. The images were converted to black and white and the total number of black and white pixels quantitated. […]
The theoretical footprint concentration of each bifunctional peptide with a multiple of the binding concentration up to 6× was determined to result in near 100% surface coverage after incubation with a titanium implant disc for only two minutes at 37° C. […] The fluorescent images were then analyzed using a MATLAB script to determine the percentage of the implant disc covered by the bifunctional peptides. […]

[2] = Peptide film coverage on implant discs after S. mutans challenge; settings: S. mutans challenge for 24 hours, FITC-labeled peptide
From the text: (§1) A custom MatLab script was developed to determine the percent surface coverage of fluorescently labeled bifunctional peptides on the implant disc surface. The color fluorescent images were read into MatLab using the imread function. The images were converted to black and white and the total number of black and white pixels quantitated. The number of white pixels corresponding to the fluorescently labeled peptides was divided by the total number of pixels to determine the percent surface coverage.
Streptococcus mutans bacteria (ATCC 700610) were cultured according to an ATCC protocol. Frozen stocks were streak plated on agar and incubated for 24 hours at 37° C. in atmosphere with 5% CO2. […]
Following the functionalization of titanium discs, they were transferred to a sterile well in a 24-well plate and 400 μL of S. mutans bacteria at a concentration of 10^3 CFU/mL was added to the wells containing the discs and incubated for 24 hours at 37° C. in atmosphere with 5% CO2. […] Experiments were repeated in triplicate and images were recorded at 10× magnification.
The binding and antimicrobial domain activities were evaluated by challenging the bifunctional peptide film applied to titanium implant discs with S. mutans bacteria for 24 hours. […]

[3] = Serum competition binding assay with BSA on titanium implant discs; settings: presence of 0.01% BSA, 2 minutes at 37° C.
From the text: as §1
Prior to functionalization of sterile titanium implant discs, a solution of BSA and the bifunctional peptide was made in a sterile centrifuge tube. In a sterile 24 well plate, 100 μL of the BSA/bifunctional peptide solution was pipetted onto a titanium implant disc and incubated at 37° C. for 2 minutes. […]
The bifunctional peptide film could be applied to a new dental implant prior to implantation and subsequently during recall appointments for treatment to previously placed implants. […] Thus, the ability of the peptide film to functionalize the implant surface in the presence of serum proteins was determined by pre-mixing the peptide with varying concentrations of bovine serum albumin (BSA) followed by incubating the mixture on the titanium disc for 2 minutes at 37° C. […]

S. mutans = assay: Propidium iodide staining of dead S. mutans bacteria on functionalized implant discs; format: cell-based, Streptococcus mutans; settings: discs functionalized 2 minutes at 37° C., S. mutans challenge 24 hours
Experimental: Streptococcus mutans bacteria (ATCC 700610) were cultured according to an ATCC protocol. Frozen stocks were streak plated on agar and incubated for 24 hours at 37° C. in atmosphere with 5% CO2. A single bacterial colony was used to inoculate 5 mL of Brain Heart Infusion (BHI) broth in a sterile 50 mL conical tube and incubated overnight in the same conditions. Following incubation, 1 mL of culture was added to 9 mL of fresh media and grown to mid-log phase with a final concentration of 10^5 CFU/mL.
Following the functionalization of titanium discs, they were transferred to a sterile well in a 24-well plate and 400 μL of S. mutans bacteria at a concentration of 10^3 CFU/mL was added to the wells containing the discs and incubated for 24 hours at 37° C. in atmosphere with 5% CO2. Following incubation, discs were imaged with a fluorescent microscope to visualize FTIC-labeled bifunctional peptides on the disc surface after bacterial challenge. The dead bacteria were stained with propidium iodide and imaged using a fluorescent microscope. Experiments were repeated in triplicate and images were recorded at 10× magnification.
The antimicrobial functional efficacy of TiBP-AMPA compared to TiBP-GL13K supported the design prediction. […] Representative fluorescent images and quantification of three replicate experiments are depicted in FIGS. 8A and 8B, respectively.

Row | Sequence | MIC (oral pathogens) | surface coverage (initial binding) [1] | surface coverage after bacterial challenge [2] | surface coverage in competition with BSA [3] | dead bacteria coverage (PI staining) (S. mutans)
1 | GKIIKLKASLKLL [GL13K, cationic amphipathic antimicrobial peptide domain] | low | – | – | – | –
2 | KWKLWKKIEKWGQGIGAVLKWLTTW [AMPA, cationic antimicrobial peptide domain] | low | – | – | – | –
3 | RPRENRGRERGLGSGGGGKIIKLKASLKLL [TiBP-GL13K, comparative bifunctional peptide: TiBP, GSGGG spacer, GL13K antimicrobial domain] | – | 96% | 60% | 73% | 10%
4 | RPRENRGRERGLGSGGGKWKLWKKIEKWGQGIGAVLKWLTTW [TiBP-AMPA] | – | 99% | 84% | 80% | 46%
